Measurements published in US20250312320A1, “METHOD AND TREATMENT FOR OSTEOARTHRITIS AND DISEASES OF CHONDROCYTE HYPERTROPHY” (The Royal Veterinary College, priority 2022, published 2025).

Tested on: ATDC5 micromass
Assay: Dose response of CDK8 inhibitors on ATDC5 micromass (alizarin red / alcian blue)
Type: cell-based, mouse
Conditions: day 14
Description: (§1) In brief, 2 μl micromasses were seeded in a 96-well plate and cultured as previous in the presence of BI1347 and additional CDK8i compounds namely BRD6989, AS2863619, SEL120-34A, MSC2530818 and CCT251545. Compound concentrations were titrated 10-fold from 10 μM down to 0.1 nM. On day 14 micromasses were fixed, stained and subsequently leached to allow for dose response analysis to be conducted.
as §1, with “seeded on” for “seeded in”, “additional Mediator kinase inhibitor” for “additional CDK8i”

CC1CCc2nc(N)c(C#N)c(-c3cccnc3)c2C1 (stereo not shown) [BRD6989]
alcian blue staining (GAG deposition) (all concentrations (10 μM down to 0.1 nM)): maintained

Cc1nc2ccc(-n3c(-c4nonc4N)nc4cnccc43)cc2[nH]1.Cl.Cl [AS2863619]
alcian blue staining (GAG deposition) (highest concentration of 10 μM): modestly reduced

Cc1c(Br)c(Br)c2c3c1nc(N1CCNCC1)n3CCC2.Cl [SEL120-34A]
alcian blue staining (GAG deposition) (highest concentration of 10 μM): modestly reduced

Cn1cc(-c2ccc(-c3cncc(Cl)c3N3CCC4(CCNC4=O)CC3)cc2)cn1 [CCT251545]
alcian blue staining (GAG deposition) (highest concentration of 10 μM): modestly reduced
